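Cultured in 96-well plates, cells were exposed to test compound for 48 hours across five concentrations. GI50 marks 50% less growth. The concentration for full growth arrest is given as TGI.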
Legend:
Assay in all cases: NCI tumour cell line growth inhibition, 48 h
NCI-H226 lung = system: NCI-H226 lung
NCI-H23 lung = system: NCI-H23 lung
NCI-H460 lung = system: NCI-H460 lung
NCI-H522 lung = system: NCI-H522 lung
NCI/ADR-RES ovarian = system: NCI/ADR-RES ovarian
OVCAR-4 ovarian = system: OVCAR-4 ovarian
OVCAR-5 ovarian = system: OVCAR-5 ovarian
OVCAR-8 ovarian = system: OVCAR-8 ovarian
PC-3 prostate = system: PC-3 prostate
RPMI-8226 leukemia = system: RPMI-8226 leukemia
RXF 393 renal = system: RXF 393 renal
SF-268 CNS = system: SF-268 CNS
SF-295 CNS = system: SF-295 CNS
SF-539 CNS = system: SF-539 CNS
SK-MEL-2 melanoma = system: SK-MEL-2 melanoma
SK-MEL-28 melanoma = system: SK-MEL-28 melanoma
SK-MEL-5 melanoma = system: SK-MEL-5 melanoma
SK-OV-3 ovarian = system: SK-OV-3 ovarian
SN12C renal = system: SN12C renal
SNB-19 CNS = system: SNB-19 CNS
SNB-75 CNS = system: SNB-75 CNS
SR leukemia = system: SR leukemia
SW-620 colon = system: SW-620 colon
T-47D breast = system: T-47D breast
TK-10 renal = system: TK-10 renal
U251 CNS = system: U251 CNS
UACC-257 melanoma = system: UACC-257 melanoma
UACC-62 melanoma = system: UACC-62 melanoma
UO-31 renal = system: UO-31 renal

Oc1ccc(-c2nnc(SCc3ccc(O)c4ncccc34)o2)cc1
TGI (NCI-H226 lung): > 100000 nM
GI50 (NCI-H23 lung): 527 nM
TGI (NCI-H23 lung): 11600 nM
GI50 (NCI-H460 lung): 364 nM
TGI (NCI-H460 lung): 5090 nM
GI50 (NCI-H522 lung): 402 nM
TGI (NCI-H522 lung): 20500 nM
GI50 (NCI/ADR-RES ovarian): 1540 nM
TGI (NCI/ADR-RES ovarian): > 73700 nM
GI50 (OVCAR-4 ovarian): 3410 nM
TGI (OVCAR-4 ovarian): > 100000 nM
GI50 (OVCAR-5 ovarian): 3330 nM
TGI (OVCAR-5 ovarian): > 100000 nM
GI50 (OVCAR-8 ovarian): 440 nM
TGI (OVCAR-8 ovarian): > 40000 nM
GI50 (PC-3 prostate): 584 nM
TGI (PC-3 prostate): > 100000 nM
GI50 (RPMI-8226 leukemia): 544 nM
TGI (RPMI-8226 leukemia): > 100000 nM
GI50 (RXF 393 renal): 1430 nM
TGI (RXF 393 renal): 34300 nM
GI50 (SF-268 CNS): 658 nM
TGI (SF-268 CNS): 35300 nM
GI50 (SF-295 CNS): 978 nM
TGI (SF-295 CNS): 10600 nM
GI50 (SF-539 CNS): 666 nM
TGI (SF-539 CNS): 15000 nM
GI50 (SK-MEL-2 melanoma): 587 nM
TGI (SK-MEL-2 melanoma): 6910 nM
GI50 (SK-MEL-28 melanoma): 2080 nM
TGI (SK-MEL-28 melanoma): > 100000 nM
GI50 (SK-MEL-5 melanoma): 854 nM
TGI (SK-MEL-5 melanoma): > 22800 nM
GI50 (SK-OV-3 ovarian): 1770 nM
TGI (SK-OV-3 ovarian): 6540 nM
GI50 (SN12C renal): 417 nM
TGI (SN12C renal): > 38500 nM
GI50 (SNB-19 CNS): 450 nM
TGI (SNB-19 CNS): 38200 nM
GI50 (SNB-75 CNS): 898 nM
TGI (SNB-75 CNS): 8400 nM
GI50 (SR leukemia): 1100 nM
TGI (SR leukemia): > 100000 nM
GI50 (SW-620 colon): 680 nM
TGI (SW-620 colon): > 100000 nM
GI50 (T-47D breast): 2430 nM
TGI (T-47D breast): 9390 nM
GI50 (TK-10 renal): 2250 nM
TGI (TK-10 renal): 7840 nM
GI50 (U251 CNS): 386 nM
TGI (U251 CNS): 13700 nM
GI50 (UACC-257 melanoma): 2530 nM
TGI (UACC-257 melanoma): 7890 nM
GI50 (UACC-62 melanoma): 2430 nM
TGI (UACC-62 melanoma): 7100 nM
GI50 (UO-31 renal): 1350 nM
TGI (UO-31 renal): 6440 nM

Reference: PubChem BioAssay (NCI)
